Experimental findings from patent publication US12233161B1, “Lipids and lipid nanoparticle formulations” (LONGUIDE BIOPHARMA CORPORATION, priority 2024, dated 2025) are described below.

The subject of this assay is mice. Description: In vivo delivery of FLuc-mRNA lipid nanoparticles in mice, in vivo imaging (IVIS). The note with it: for IVIS / % of organ targeting: Fluc-mRNA LNP. The method, boiled down: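 Mice (n=3) received about 75 μL FLuc-mRNA LNP per mouse intramuscularly (rectus femoris), intravenously (tail vein), intraperitoneally or subcutaneously (back). After injection, D-luciferin (200 μL, 15 mg/mL) was given i.p. 10-15 min before IVIS imaging.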

The mark [1] stands for this setting: route IM, organ not given, formulation, molar ratio and N/P as in the table.
The mark [2] stands for this setting: route IV, organ: body, formulation, molar ratio and N/P as in the table.
[3] abbreviates: route IV, organ: liver, formulation, molar ratio and N/P as in the table.
Setting [4] is: route IV, organ: lung, formulation, molar ratio and N/P as in the table.
Where [5] appears, read: route IV, organ: spleen, formulation, molar ratio and N/P as in the table.
The mark [6] stands for this setting: route IM, organ: liver, formulation, molar ratio and N/P as in the table.
[7] abbreviates: route IM, organ: lung, formulation, molar ratio and N/P as in the table.
Where [8] appears, read: route IM, organ: spleen, formulation, molar ratio and N/P as in the table.

As to `CCCCCCC(CCCCC)C(=O)OCCCCNC(=O)C(O)CN(CCCN(C)CCCCN(CCC(O)C(=O)NCCOC(=O)C(CCCCCC)CCCCCC)C(O)C(=O)NCCCCOC(=O)C(CCCCCC)CCCCCC)CC(O)C(=O)NCCCCOC(=O)C(CCCCC)CCCCCC` (stereo not drawn) [Compound L0367], the IVIS turned out to be 1.65E+07 (route IH, organ: body, DSPE-PEG5000:DSPC:Chol:compound 1.40:11.15:38.95:48.50, N/P 30); 8.20E+03 (route IH, organ: spleen, DSPE-PEG5000:DSPC:Chol:compound 1.40:11.15:38.95:48.50, N/P 30); 3.40E+07 under setting [1]; 4.05E+07 under setting [2]; 3.83E+06 under setting [3]; 4.47E+07 under setting [4]. Also, the IVIS under setting [5] worked out at 3.69E+07. Besides, the “% of organ targeting” value is, setting by setting: under setting [3], 3.91%; under setting [4], 45.55%; under setting [5], 37.59%.
On to `CCCCCCC(CCCCCC)C(=O)NCCNC(=O)C(O)CN(CCCN(CC(O)C(=O)NCCNC(=O)C(CCCCCC)CCCCCC)CC(O)C(=O)NCCNC(=O)C(CCCCCC)CCCCCC)CCCN(CC(O)C(=O)NCCNC(=O)C(CCCCCC)CCCCCC)CC(O)C(=O)NCCNC(=O)C(CCCCCC)CCCCCC` (stereo not drawn) [Compound L0381], for which the IVIS under setting [1] was found to be 1.90E+07; the IVIS under setting [2] was determined as 1.57E+08; the IVIS under setting [3] was found to be 8.07E+07; the IVIS under setting [4] stood at 4.31E+05; the IVIS under setting [5] is on record as 1.22E+07. Besides, the “% of organ targeting” value under setting [3] is 86.51%, the “% of organ targeting” value under setting [4] was found to be 0.46% and the “% of organ targeting” value under setting [5] stood at 13.03%.
Regarding `CCCCCCCC(CCCCCCC)OC(=O)CCCNC(=O)C(O)CN(CCCN(C)CCCN(CC(O)C(=O)NCCCC(=O)OC(CCCCCCC)CCCCCCC)CC(O)C(=O)NCCCC(=O)OC(CCCCCCC)CCCCCCC)CC(O)C(=O)NCCCC(=O)OC(CCCCCCC)CCCCCCC` (stereo not drawn) [Compound L0382], the “% of organ targeting” value worked out at 35.27% under setting [6]; 7.39% under setting [7]; 57.34% under setting [8]; 67.69% under setting [3]; 9.82% under setting [4]; 22.49% under setting [5]. In addition, the IVIS reads like this: under setting [6], 5.75E+04; under setting [7], 1.20E+04; (route IM, organ: muscle, formulation, molar ratio and N/P as in the table) 4.83E+07; under setting [8], 9.34E+04; under setting [2], 1.60E+09; under setting [3], 3.25E+08. Also, the IVIS reads like this: under setting [4], 4.72E+07; under setting [5], 1.08E+08.
As to `CCCCCCCCCCOC(=O)CCCNC(=O)C(O)CN(CCCN(C)CCCN(CC(O)C(=O)NCCCC(=O)OCCCCCCCCCC)CC(O)C(=O)NCCCC(=O)OCCCCCCCCCC)CC(O)C(=O)NCCCC(=O)OCCCCCCCCCC` (stereo not drawn) [Compound L0385], the IVIS worked out at 1.14E+06 under setting [1]; 8.17E+07 under setting [2]; 2.51E+06 under setting [3]; 2.74E+08 under setting [4]; 1.94E+06 under setting [5]. The “% of organ targeting” value reads like this: under setting [3], 0.90%; under setting [4], 98.40%; under setting [5], 0.70%. Further, for the setting “Table 3, Fluc-mRNA, various formulations”, the “organ targeting specificity (spleen or lung), in words” value is “more selective towards the lung”.
Consider `CCCCCCCCCCCCNC(=O)C(CN(CCCN(C)CCCN(CC(OC(=O)CCCCC)C(=O)NCCCCCCCCCCCC)CC(OC(=O)CCCCC)C(=O)NCCCCCCCCCCCC)CC(OC(=O)CCCCC)C(=O)NCCCCCCCCCCCC)OC(=O)CCCCC` (stereo not drawn) [Compound L0389], for which the IVIS by setting is: under setting [1], 1.99E+04; (route IV, organ not given, formulation, molar ratio and N/P as in the table) 2.50E+05.
On to `CCCCCCCCCCCCCCN(C)C(=O)C(O)CN(CCN(C)CCN(CC(O)C(=O)N(C)CCCCCCCCCCCCCC)CC(O)C(=O)N(C)CCCCCCCCCCCCCC)CC(O)C(=O)N(C)CCCCCCCCCCCCCC` (stereo not drawn) [Compound L0356], for which the IVIS is 1.62E+05 under setting [1]; 2.19E+06 under setting [2]; 1.12E+05 under setting [3]; 1.18E+06 under setting [4]; 2.63E+05 under setting [5]. Moreover, the “% of organ targeting” value under setting [3] came to 7.17%, the “% of organ targeting” value under setting [4] was determined as 75.97% and the “% of organ targeting” value under setting [5] was determined as 16.86%.
